Source: article PMC7707621, “Oxidized Juncuenin B Analogues with Increased Antiproliferative Activity on Human Adherent Cell Lines: Semisynthesis and Biological Evaluation” (Journal of Natural Products, 2020)
Entries after “also recorded” stand apart in the source; their conditions may differ.

How the values were obtained:
T47D cells = assay: MTT antiproliferative assay on T47D; format: cell-based, human; details: for inhibition at 10 µM / inhibition at 30 µM / IC50: Homo sapiens, T47D; for inhibition at 10 µM / inhibition at 30 µM: read-out: Growth inhibition (% ± SEM), T47d; for IC50: MTT, 0.1–30 μM, 72 h, mean ± SEM, read-out: calculated IC50 values, T47D
Procedure: (§1) The antiproliferative assays of the products were carried out by a standard MTT method on human breast (MCF-7, T47D), cervical (HeLa, SiHa, C33A), and ovarian (A2780) cancer cells, and NIH/3T3 mouse embryonic fibroblast cell lines. In the first step, the diastereomeric and racemic mixtures 1–11 and the starting compound, juncuenin B, were tested to obtain information about their antiproliferative activity.
(§2) The antiproliferative activity and tumor selectivity of the compounds were measured by standard MTT assays. Tumor cell lines MCF-7, T47D, HeLa, A2780, and noncancerous NIH/3T3 were provided by European Collection of Authenticated Cell Cultures (ECACC, Salisbury, UK); cell lines SiHa and C33A by LGC Standards GmbH (Wesel, Germany). All chemicals and materials used for the antiproliferative assays were purchased from Sigma Aldrich Ltd. (Budapest, Hungary).
(§3) Growth-inhibition properties of racemates and pure enantiomer compounds were determined by standard MTT assays on six human malignant gynecological cell lines (MCF-7, T47D, HeLa, SiHa, C33A, A2780). To investigate tumor selectivity, the MTT assay was repeated on mouse embryonic fibroblast cells (NIH/3T3) under the same conditions. All cell lines were maintained in minimal essential medium (MEM) supplemented with 10% fetal bovine serum, 1% nonessential amino acids, and 1% penicillin–streptomycin–amphotericin B mixture, and were stored in humidified air containing 5% CO2 at 37 °C. All cell types were seeded into 96–well plates at a density of 5000 with the exception of C33a, which was seeded at a density of 10 000 and treated by increasing concentrations (0.1–30 μM) of the compounds for 72 h under cell culturing conditions. After the incubation, 5 mg/mL MTT [3-(4,5-dimethylthiazol-2-yl)-2,5-diphenyltetrazolium bromide] solution was added to samples for 4 h and precipitated blue formazan crystals were dissolved in DMSO. Absorbance values of the samples were measured at 545 nm using a microplate reader (Stat Fax-2100, Awareness Technologies Inc., Palm City, FL, USA) and untreated cells were used as control. Normalized sigmoidal dose–response curves were fitted to the determined data and the IC50 values were calculated by GraphPad Prism 5.01 (GraphPad Software, San Diego, CA, USA). Cisplatin (Ebewe Pharma GmbH, Unterach, Austria) was used as a reference agent in the same concentration range.

[1] = test system: MCF-7, T47D, HeLa, SiHa, C33A, A2780 cells; assay: MTT antiproliferative assay, panel of human gynecological cancer cell lines (result in words); format: cell-based
Procedure: as §1, §2, §3

C33A cells = assay: MTT antiproliferative assay on C33A; format: cell-based, human; details: for inhibition at 10 µM / inhibition at 30 µM / IC50: Homo sapiens, C-33-A; for inhibition at 10 µM / inhibition at 30 µM: read-out: Growth inhibition (% ± SEM), C33a; for IC50: MTT, 0.1–30 μM, 72 h, mean ± SEM, read-out: calculated IC50 values, C33A
Procedure: as §1, §2, §3

SiHa cells = assay: MTT antiproliferative assay on SiHa; format: cell-based, human; details: for inhibition at 10 µM / inhibition at 30 µM / IC50: Homo sapiens, SiHa; for inhibition at 10 µM / inhibition at 30 µM: read-out: Growth inhibition (% ± SEM), SiHa; for IC50: MTT, 0.1–30 μM, 72 h, mean ± SEM, read-out: calculated IC50 values, SiHa
Procedure: as §1, §2, §3

A2780 cells = assay: MTT antiproliferative assay on A2780; format: cell-based, human; details: for inhibition at 10 µM / inhibition at 30 µM / IC50: Homo sapiens; for inhibition at 10 µM: A2780, 10 μM; for inhibition at 10 µM / inhibition at 30 µM: read-out: Growth inhibition (% ± SEM), A2780; for inhibition at 30 µM: A2780, 30 μM; for IC50: A2780, MTT, 0.1–30 μM, 72 h, mean ± SEM, read-out: calculated IC50 values, A2780
Procedure: as §1, §2, §3

MCF-7 cells = assay: MTT antiproliferative assay on MCF-7; format: cell-based, human; details: for inhibition at 10 µM / inhibition at 30 µM / IC50: Homo sapiens; for inhibition at 10 µM: MCF7, 10 μM; for inhibition at 10 µM / inhibition at 30 µM: read-out: Growth inhibition (% ± SEM), MCF-7; for inhibition at 30 µM: MCF7, 30 μM; for IC50: MCF7, MTT, 0.1–30 μM, 72 h, mean ± SEM, read-out: calculated IC50 values, MCF-7
Procedure: as §1, §2, §3

HeLa cells = assay: MTT antiproliferative assay on HeLa; format: cell-based, human; details: for inhibition at 10 µM / inhibition at 30 µM / IC50: Homo sapiens, HeLa; for inhibition at 10 µM / inhibition at 30 µM: read-out: Growth inhibition (% ± SEM), HeLa; for IC50: MTT, 0.1–30 μM, 72 h, mean ± SEM, read-out: calculated IC50 values, HeLa
Procedure: as §1, §2, §3

[2] = test system: NIH/3T3 mouse embryonic fibroblast cells; assay: MTT assay for tumor selectivity on NIH/3T3; format: cell-based; details: Mus musculus, NIH3T3; for IC50: MTT, 0.1–30 μM, 72 h, mean ± SEM, read-out: calculated IC50 values, NIH/3T3; for inhibition at 10 µM / inhibition at 30 µM: read-out: Growth inhibition (% ± SEM), NIH
Procedure: as §1, §2, §3

IC50 (T47D cells) [µM] | IC50 (A2780 cells) [µM] | IC50 (MCF-7 cells) [µM] | IC50 (HeLa cells) [µM] | Structure (SMILES) | inhibition at 10 µM (T47D cells; 10 μM) [%] | inhibition at 30 µM (T47D cells; 30 μM) [%] | antiproliferative activity (in words) [1] | inhibition at 10 µM (C33A cells; 10 μM) [%] | inhibition at 30 µM (C33A cells; 30 μM) [%] | inhibition at 10 µM (SiHa cells; 10 μM) [%] | inhibition at 30 µM (SiHa cells; 30 μM) [%] | inhibition at 10 µM (A2780 cells) [%] | inhibition at 30 µM (A2780 cells) [%] | inhibition at 10 µM (MCF-7 cells) [%] | inhibition at 30 µM (MCF-7 cells) [%] | inhibition at 10 µM (HeLa cells; 10 μM) [%] | inhibition at 30 µM (HeLa cells; 30 μM) [%] | IC50 [2] [µM] | IC50 (C33A cells) [µM] | IC50 (SiHa cells) [µM] | further results
– | – | – | – | C=CC1=C(C)C(=O)C=C2C3(OCC)C=CC(=O)C(C)=C3CCC21OCC (centres unmarked) [Compound 5] | < 10 | 14.1 ± 2.78 | did not exert antiproliferative activity; also recorded: No significant activities | < 10 | 10.3 ± 1.51 | < 10 | < 10 | < 10 | < 10 | < 10 | < 10 | < 10 | 14.4 ± 1.51 | – | – | – | –
30 ± 0.5 | 16.5 ± 2 | 18.2 ± 0.2 | > 30 | C=CC1=C(C)C(=O)C=C2c3ccc(O)c(C)c3CCC21OCCCC (centres unmarked) [Compound 11] | 11.6 ± 1.4 | 52.9 ± 0.59 | No significant activities | 20.1 ± 2.24 | 65.5 ± 1.26 | < 10 | < 10 | 28.3 ± 2.31 | 77.82 ± 0.69 | 27.7 ± 1.3 | 82.46 ± 0.33 | < 10 | 42.6 ± 1.18 | > 30 | 19.9 ± 1.3 | > 30 | –
> 30 | > 30 | > 30 | > 30 | C=CC1=C(C)C(=O)C=C2c3ccc(O)c(C)c3CC[C@]21OCC [Compound 7b, 8a-ethoxy-1,7-dimethyl-6-oxo-8-vinyl-9,10-dihydrophenanthrene-2-ols] | < 10 | 13.5 ± 2.41 | no activity; also recorded: no relevant influence on the cell proliferation | < 10 | 26 ± 3 | < 10 | < 10 | < 10 | 20.6 ± 2.43 | < 10 | < 10 | 15 ± 2.72 | 31.7 ± 2.37 | > 30 | > 30 | > 30 | inhibition at 10 µM [2]: < 10%; inhibition at 30 µM [2]: 10.5 ± 1%
– | – | – | – | C=CC1=C2CCc3c(ccc(O)c3C)C2=CC(=O)C1(C)OCC (centres unmarked) [Compound 9] | < 10 | 13.2 ± 2.03 | did not exert antiproliferative activity; also recorded: No significant activities | < 10 | < 10 | < 10 | < 10 | < 10 | < 10 | 10.7 ± 2.42 | 17 ± 2.56 | 15.1 ± 1.9 | 18.4 ± 3.15 | – | – | – | –
– | – | – | – | C=Cc1c(C)c(O)c(OC)c2c3c(ccc12)C(C)(OC)C(=O)C=C3 (centres unmarked) [Compound 3] | < 10 | 15.5 ± 2.06 | did not exert antiproliferative activity; also recorded: No significant activities | < 10 | 14.2 ± 1.51 | < 10 | < 10 | < 10 | < 10 | 22.7 ± 0.57 | 21.4 ± 0.34 | < 10 | 15 ± 1.11 | – | – | – | –
– | – | – | – | C=CC1=C(C)C(=O)C=C2C3(OC)C=CC(=O)C(C)=C3CCC21OC (centres unmarked) [Compound 2a] | < 10 | 19.8 ± 0.61 | did not exert antiproliferative activity; also recorded: No significant activities | < 10 | 31.9 ± 3.75 | 15.4 ± 1.68 | 16.9 ± 2.31 | < 10 | 54.6 ± 3.67 | 40.3 ± 0.95 | 30.5 ± 1.82 | 32.3 ± 4.15 | 30 ± 0.74 | – | – | – | –
– | – | – | – | C=CC1=C(C)C(=O)C(OCCCC)(OCCCC)c2c1ccc1c2C=CC(=O)C1(C)OCCCC (centres unmarked) [Compound 10] | < 10 | 33 ± 1.62 | did not exert antiproliferative activity | < 10 | 16 ± 1.43 | < 10 | 10.4 ± 2.8 | < 10 | 10.1 ± 1.23 | < 10 | 42.5 ± 2.23 | < 10 | 14.1 ± 1.97 | – | – | – | –
– | – | – | – | C=CC1=C(C)C(=O)C=C2C3(OC)C=CC(=O)C(C)=C3CCC21OC (centres unmarked) [Compound 2b] | – | – | did not exert antiproliferative activity; also recorded: No significant activities | – | – | – | – | – | – | – | – | – | – | – | – | – | Growth inhibition (% ± SEM), T47d (T47D cells; 10 μM): 16.79±1.72%; Growth inhibition (% ± SEM), T47d (T47D cells; 30 μM): 25.66±2.53%; Growth inhibition (% ± SEM), C33a (C33A cells; 10 μM): < 10%; Growth inhibition (% ± SEM), C33a (C33A cells; 30 μM): 23.25±2.82%; Growth inhibition (% ± SEM), SiHa (SiHa cells; 10 μM): 14.10±2.36%; Growth inhibition (% ± SEM), SiHa (SiHa cells; 30 μM): 15.32±0.68%; Growth inhibition (% ± SEM), A2780 (A2780 cells; 10 μM): < 10%; Growth inhibition (% ± SEM), A2780 (A2780 cells; 30 μM): 38.92±3.78%; Growth inhibition (% ± SEM), MCF-7 (MCF-7 cells; 10 μM): 27.86±1.80%; Growth inhibition (% ± SEM), MCF-7 (MCF-7 cells; 30 μM): 46.79±1.23%; Growth inhibition (% ± SEM), HeLa (HeLa cells; 10 μM): 16.35±1.56%; Growth inhibition (% ± SEM), HeLa (HeLa cells; 30 μM): 38.33±1.22%
– | – | – | – | C=Cc1c(C)c(O)cc2c3c(ccc12)C(C)(OCC)C(=O)C=C3 (centres unmarked) [Compound 8] | < 10 | 14.1 ± 2.02 | did not exert antiproliferative activity; also recorded: No significant activities | < 10 | 21.3 ± 1.52 | < 10 | 16.7 ± 2.83 | < 10 | < 10 | 13 ± 0.63 | 23.9 ± 2.11 | < 10 | 22.2 ± 1.15 | – | – | – | –
> 30 | > 30 | > 30 | > 30 | C=CC1=C(C)C(=O)C=C2c3ccc(O)c(C)c3CC[C@]21OC [Compound 4b] | 16.5 ± 1.68 | 28.1 ± 1.79 | no relevant influence on the cell proliferation | < 10 | 35.4 ± 0.8 | < 10 | < 10 | < 10 | 13.7 ± 2.81 | 24.4 ± 1.43 | 42 ± 1.94 | 19 ± 2.11 | 37.2 ± 0.72 | > 30 | > 30 | > 30 | inhibition at 10 µM [2]: < 10%; inhibition at 30 µM [2]: < 10%
